Source: patent publication US5135910A, “Nisin compositions for use as enhanced, broad range bactericides” (The Public Health Research Institute of the City of New York, priority 1991, dated 1992)

Assays:
[1] = tested on: S. typhimurium on chicken muscle; assay: bactericidal activity towards S. typhimurium on chicken muscle (unadhered cells); format: cell-based, Salmonella typhimurium
Protocol: (§1) All tests in the following examples were performed at 37° C. The efficacy of the enhanced broad range bactericides was determined by assaying bactericidal activity as measured by the percent bacterial survival after treatment with the bactericide. Generally, after incubation of a 10^7 cell per ml suspension of target species with the novel bactericide for specified lengths of time, bacteria were collected by centrifugation for 2 minutes. […] Surviving bacteria were determined by scoring colony forming units (CFU) after incubation for 24-48 hours at 37° C. An effective bactericide according to this invention is one which allows less than 0.1% of the initial viable count of the bacteria to survive.
Incubations were performed in either 50 mM sodium acetate, pH 5.0, or 20 mM […], pH 8.0 at 37° C.
Cubes of chicken muscle were cleansed with sodium hypochlorite and povidone iodine prior to use. To inoculate the tissue, the cubes of chicken muscle were dipped into a 10^8 cells/ml suspension of S. typhimurium in 20 mM Tris HCl, pH 8.0. Excess moisture was removed from dipped cubes by tapping. The chicken samples were placed into sufficient buffer containing the nisin composition to cover the tissue and incubated for 2 hours at 37° C. after which the tissue was removed to sufficient Phage buffer to cover the tissue. The bacteria remaining in the test solution were collected by centrifugation, washed with Phage buffer, and combined with bacteria washed from the tissue by Phage buffer. The combined samples (termed "unadhered" cells) were serially diluted and 100μl aliquots were plated for determination of surviving bacteria.
(§2) Cubes of chicken muscle were cleansed with sodium hypochlorite and povidone iodine prior to use. To inoculate the tissue, the cubes of chicken muscle were dipped into a 10^8 cells/ml suspension of S. typhimurium in 20 mM Tris HCl, pH 8.0. Excess moisture was removed from dipped cubes by tapping. The tissue was placed into sufficient buffer containing the nisin compositions to cover the tissue, and incubated for 2 hours at 37° C. after which the tissue was removed to sufficient Phage buffer to cover the tissue. The bacteria remaining in the test solution were collected by centrifugation, washed with Phage buffer, and combined with bacteria washed from the tissue by Phage buffer. The combined samples (termed "unadhered" cells) were serially diluted and 100 μl aliquots were plated for determination of surviving bacteria.
as §2, with “cleaned” for “cleansed”, “with” for “with sodium”, “50” for “20”, “sodium acetate buffer,” for “Tris HCl,”, “5.0.” for “8.0.”, “containing” for “containing the”

K. pneumoniae = assay: bactericidal activity, percent bacterial survival, K. pneumoniae suspension; format: cell-based, Klebsiella pneumoniae; details: 20 mM Tris pH 8.0, 37° C.
Protocol: as §1, with “C.” for “C. An effective bactericide according to this invention is one which allows less than 0.1% of the initial viable count of the bacteria to survive.”
The effect was measured as a function of percentage bacterial survival after 2 hours.

Streptococcus mutans [2] = assay: bactericidal activity, percent survival, Streptococcus mutans in Tris buffer; format: cell-based; details: for % Survival (S. mutans kinetics): nisin 0, 1.0 mM EDTA, Tris-HCl pH 7.3
Protocol: (§5) All tests in the following examples were performed at 37° C. The efficacy of the enhanced broad range bactericides was determined by assaying bactericidal activity as measured by the percent bacterial survival after treatment with the bactericide. Generally, after incubation of a 10^7 cell per ml suspension of target species with the novel bactericide for specified lengths of time, bacteria were collected by centrifugation for 2 minutes. The bacterial pellet was washed free of the bactericide with a rescue buffer, termed herein Phage buffer (50 mM Tris-HCl buffer pH 7.8, 1 mM MgSO4, 4 mM CaCl2, 0.1 M Nacl, and 0.1% gelatin), resuspended and serially diluted into Phage buffer, and 100 μl of the suspended bacteria were spread on nutrient agar plates. Surviving bacteria were determined by scoring colony forming units (CFU) after incubation for 24-48 hours at 37° C.
The suspensions were incubated for various times ranging from 0.5 to 60 minutes with the bactericides. The bactericidal efficacy of the bactericides was estimated by determining the percent survival of bacteria.
Incubations were performed in 20 mM TrisHCl, pH 7.3 at 37° C.

Listeria monocytogenes [3] = assay: bactericidal activity, percent survival, Listeria monocytogenes in Tris buffer; format: cell-based; details: 20 mM Tris-HCl pH 8.0
Protocol: as §1
(§3) Incubations were performed in 20 mM TrisHCl, pH 8.0 at 37° C.

Coryneform bacteria = assay: bactericidal activity, percent survival, axillary Coryneform bacteria; format: cell-based; details: 20 mM Tris-HCl pH 8.0
Protocol: as §1, §3

Staphyloccus aureus = assay: bactericidal activity, percent survival, Staphylococcus aureus; format: cell-based
Protocol: as §1
Incubations were performed in 50 mM sodium acetate buffer, pH 5.0 or 20 m
TrisHCl buffer, pH 8.0 at 37° C.

S. typhimurium = assay: bactericidal activity, percent bacterial survival, S. typhimurium suspension; format: cell-based, Salmonella typhimurium; details: for Percentage S. typhimurium Survival at 3 hours: 20 mM Tris pH 8.0, 37° C.
Protocol: as §1, with “C.” for “C. An effective bactericide according to this invention is one which allows less than 0.1% of the initial viable count of the bacteria to survive.”
The control (Test #1) is identical to the control of Example 1 (Table 1).

E. coli = assay: bactericidal activity, percent bacterial survival, E. coli suspension; format: cell-based, Escherichia coli; details: for Percentage E. coli Survival at 2 hours: 20 mM Tris pH 8.0, 37° C.
Protocol: as §1, with “C.” for “C. An effective bactericide according to this invention is one which allows less than 0.1% of the initial viable count of the bacteria to survive.”
The effects of the bactericide were measured as a function of percentage bacteria survival after 2 hours.
Incubations were performed in 20 mM Tris, pH 7.0 at 37° C.

Streptococcus agalactiae = assay: bactericidal activity towards Streptococcus agalactiae in milk; format: cell-based
Protocol: as §1
However, the combination of the two agents, 0.1% monolaurin and nisin 0.2 μg/ml, is extremely potent towards S. agalactiae. […] Thus, when the application of nisin is limited by its available activity, a bactericide comprising nisin with a surfactant can be expected to be more useful.
(§4) Incubations were in milk at 37° C.

Listeria monocytogenes [4] = assay: bactericidal activity towards Listeria monocytogenes in milk; format: cell-based
Protocol: as §1
An example of where the application of nisin is limited by its available activity is illustrated by the data in Table 15B.
as §4

Streptococcus mutans [5] = assay: rapid bactericidal activity towards Streptococcus mutans in the presence of divalent cation, 10% fetal calf serum; format: cell-based; details: nisin 3, no EDTA, CaCl3 0 mM
Protocol: as §5
Incubations performed in 10% Fetal Calf Serum at 37° C.

O=C([O-])CN(CCN(CC(=O)[O-])CC(=O)O)CC(=O)O.[Na+].[Na+] [EDTA]
% Survival at 2 hours ([1]; nisin 0, EDTA 1.0 mM, BSA 1.0%, pH 8.0): 27% | % Survival at 2 hours, unadhered cells ([1]; nisin 0, EDTA 10 mM, pH 5.0): 6.4% | % Survival at 2 hours, unadhered cells ([1]; nisin 0, EDTA 10 mM, pH 8.0): 5.2% | % Survival at 2 hours (K. pneumoniae) (K. pneumoniae; nisin 0, EDTA 20 mM): 22% | % Survival (S. mutans kinetics) (Streptococcus mutans [2]; incubation 3 min): 100% | % Survival (S. mutans kinetics) (Streptococcus mutans [2]; incubation 60 min): 100% | % Survival after 2 hr (L. monocytogenes) (Listeria monocytogenes [3]; nisin 0, EDTA 1.0 mM): 84% | % Survival 2 hr (Coryneform bacteria) (Coryneform bacteria; nisin 0, EDTA 0.3 mM): 4.6% | % Survival 2 hr (Coryneform bacteria) (Coryneform bacteria; nisin 0, EDTA 1.0 mM): 3.6% | % Survival 2 hr (Coryneform bacteria) (Coryneform bacteria; nisin 0, EDTA 3.0 mM): 8% | % Survival 2 hr (Coryneform bacteria) (Coryneform bacteria; nisin 0, EDTA 10 mM): 36% | % Survival 2 hr (S. aureus) (Staphyloccus aureus; nisin 0, EDTA 0.3 mM, pH 8.0): 100% | % Survival 2 hr (S. aureus) (Staphyloccus aureus; nisin 0, EDTA 1.0 mM, pH 8.0): 81% | % Survival 2 hr (S. aureus) (Staphyloccus aureus; nisin 0, EDTA 3.0 mM, pH 5.0): 100% | % Survival 2 hr (S. aureus) (Staphyloccus aureus; nisin 0, EDTA 3.0 mM, pH 8.0): 100% | % Survival 2 hr (S. aureus) (Staphyloccus aureus; nisin 0, EDTA 10 mM, pH 8.0): 100% | % Survival 2 hr (S. aureus) (Staphyloccus aureus; nisin 0, EDTA 30 mM, pH 8.0): 100% | % Survival at 2 hours (S. typhimurium) (S. typhimurium; nisin 0, EDTA 1.0 mM, BSA 1.0%, 20 mM Tris pH 8.0): 63% | % Survival at 2 hours (S. typhimurium) (S. typhimurium; nisin 0, EDTA 2.0 mM, 20 mM Tris pH 8.0): 8.7% | % Survival at 2 hours (S. typhimurium) (S. typhimurium; nisin 0, EDTA 2.0 mM, 50 mM sodium acetate pH 5.0): 38.7% | % Survival at 2 hours (S. typhimurium) (S. typhimurium; nisin 0, EDTA 10 mM, 20 mM Tris pH 8.0): 14% | % Survival at 2 hours (S. typhimurium) (S. typhimurium; nisin 0, EDTA 10 mM, 50 mM sodium acetate pH 5.0): 15.2% | Percentage S. typhimurium Survival at 3 hours (S. typhimurium; nisin 0, EDTA 20 mM): 2.5% | % Survival at 2 hours (S. typhimurium) (S. typhimurium; nisin 0, EDTA 50 mM, 20 mM Tris pH 8.0): 11.4% | % Survival at 2 hours (S. typhimurium) (S. typhimurium; nisin 0, EDTA 50 mM, 50 mM sodium acetate pH 5.0): 3.5% | % Survival at 2 hours (S. typhimurium) (S. typhimurium; nisin 0, EDTA 100 mM, 20 mM Tris pH 8.0): 45% | % survival at 1 min (E. coli) (E. coli; nisin 0, EDTA 1.0 mM, 20 mM Tris pH 7.0): 100%

CCCCCCCCCCCC(=O)OCC(O)CO (stereo not drawn) [Monolaurin, monolaurin]
bactericidal activity towards Streptococcus agalactiae (Streptococcus agalactiae; monolaurin at concentrations up to 0.1%): little significant bactericidal activity | % survival at 2 h (S. agalactiae) (Streptococcus agalactiae; nisin 0, monolaurin 0.01%, 37° C.): 100% | % survival at 2 h (S. agalactiae) (Streptococcus agalactiae; nisin 0, monolaurin 0.1%, 37° C.): 4.5%

Triton X-100
Percentage E. coli Survival at 2 hours (E. coli; nisin 0, EDTA 0, Triton X-100 1.0%): 100% | bactericidal activity towards E. coli (E. coli; tests #3 and #4, Table 4): no significant bactericidal activity

monooleate
bactericidal activity towards L. monocytogenes (Listeria monocytogenes [4]; monooleate by itself): no bactericidal activity | % Survival 2 hr (L. monocytogenes) (Listeria monocytogenes [4]; nisin 0, monooleate 0.1%, 37° C.): 67% | % Survival 2 hr (L. monocytogenes) (Listeria monocytogenes [4]; nisin 0, monooleate 1.0%, 37° C.): 63%

nisin
% survival at 1 min. (S. mutans) (Streptococcus mutans [5]): 2.9% | % Survival at 2 hours, unadhered cells ([1]; nisin 300 μg/ml, EDTA 0, pH 5.0): 0.1% | % Survival at 2 hours, unadhered cells ([1]; nisin 300 μg/ml, EDTA 0, pH 8.0): 7.5% | % Survival at 2 hours, unadhered cells ([1]; nisin 300 μg/ml, EDTA 0, pH 8.0, contains 1% BSA): 0.02% | % Survival at 2 hours (K. pneumoniae) (K. pneumoniae; nisin 100 μg/ml, EDTA 0): 50% | % Survival at 2 hours (K. pneumoniae) (K. pneumoniae; nisin 300 μg/ml, EDTA 0): 38% | % Survival after 2 hr (S. mutans) (Streptococcus mutans [2]; nisin 0.1 μg/ml, EDTA 0, 20 mM Tris-HCl pH 8.0): 4.3% | % survival at 2 h (S. agalactiae) (Streptococcus agalactiae; nisin 0.02 μg/ml, monolaurin 0, 37° C.): 100% | % survival at 2 h (S. agalactiae) (Streptococcus agalactiae; nisin 0.2 μg/ml, monolaurin 0, 37° C.): 2.2% | bactericidal activity towards Streptococcus agalactiae (Streptococcus agalactiae; nisin at concentrations up to 0.2 μg/ml): does not exhibit significant bactericidal activity | % Survival after 2 hr (L. monocytogenes) (Listeria monocytogenes [3]; nisin 3.0 μg/ml, EDTA 0): 0.71% | % Survival 2 hr (L. monocytogenes) (Listeria monocytogenes [4]; nisin 100 μg/ml, monooleate 0, 37° C.): 0.56% | % Survival 2 hr (Coryneform bacteria) (Coryneform bacteria; nisin 3 μg/ml, EDTA 0): 0.22% | % Survival 2 hr (S. aureus) (Staphyloccus aureus; nisin 3.0 μg/ml, EDTA 0, pH 5.0): 0.6% | % Survival 2 hr (S. aureus) (Staphyloccus aureus; nisin 3.0 μg/ml, EDTA 0, pH 8.0): 7.4% | % Survival at 2 hours (S. typhimurium) (S. typhimurium; Table 8 test 1: nisin 10 μg/ml, EDTA 0, BSA 0): 51.3% | % Survival at 2 hours (S. typhimurium) (S. typhimurium; Table 8 test 1: nisin 100 μg/ml, EDTA 0, BSA 0): 1.6% | Percentage S. typhimurium Survival at 3 hours (S. typhimurium; nisin 10 μg/ml, EDTA 0 mM): 51.3% | Percentage S. typhimurium Survival at 3 hours (S. typhimurium; nisin 50 μg/ml, EDTA 0 mM): 7.0% | % Survival at 2 hours (S. typhimurium) (S. typhimurium; nisin 100 μg/ml, EDTA 0, 20 mM Tris pH 8.0 (Table 6)): 4% | % Survival at 2 hours (S. typhimurium) (S. typhimurium; nisin 100 μg/ml, EDTA 0, 50 mM sodium acetate pH 5.0): 0.6% | Percentage S. typhimurium Survival at 3 hours (S. typhimurium; nisin 100 μg/ml, EDTA 0 mM): 1.6% | Percentage E. coli Survival at 2 hours (E. coli; nisin 30 μg/ml, EDTA 0, Triton X-100 0): 27% | Percentage E. coli Survival at 2 hours (E. coli; nisin 100 μg/ml, EDTA 0, Triton X-100 0): 25% | Percentage E. coli Survival at 2 hours (E. coli; nisin 300 μg/ml, EDTA 0, Triton X-100 0): 8.5%
